# Data from a melting point compilation (Tetko et al.; mined from patent text by program, amines drawn as free bases though some values may be those of a salt).
row,melting point [°C],SMILES
1,107 to 108,COc1ccc(C(=O)C=Cc2ccccc2[N+](=O)[O-])c(OC)c1OC
2,141 to 152,CCS(=O)(=O)N[C@H](C(=O)NCc1ccc(OCc2ccccc2)c(OC)c1)C(C)C
3,237,O=C(Nc1cccc(S(=O)(=O)CCO)c1)c1cnn2c(C(F)(F)F)cc(-c3ccc(C(F)(F)F)cc3)nc12
4,156 to 160,Nc1c(F)c(Oc2ccc(Cl)c(Cl)c2)nc(C(=O)O)c1Cl
5,185 to 187,COc1ccc(-c2cc3cc(OC)cc(C=NO)c3o2)cc1
6,194 to 196,COc1cc(C(=O)NC2CCN(C)CC2)c(F)cc1Nc1ncc2c(n1)N(C1CCCC1)CC(F)(F)C(=O)N2C
7,135 to 136,NC(=O)C(c1ccc(Cl)cc1)c1ncc(C(F)(F)F)cc1Cl (stereo unspecified)
8,100 to 103,CCOC(C)c1cc(C(=O)OC)c(N)cc1C(F)(F)F (stereo unspecified)
9,117 to 120,CC(=O)NCC1CC(c2ccc(C3=CCN(C(=O)OC(C)(C)C)CC3)cc2)=NO1 (stereo unspecified)
10,182 to 184,CC(C)c1nc2c(c3c1[nH]c1ccccc13)C(=O)C(C)(C)CC2
11,189 to 190,CNC(=O)Oc1ccc2c(c1)c1c(n2C)C2(CC1)CCN(C(=O)c1ccccc1)CC2
12,61,CCCCCCCCCCCCCCCCCCCCC(=S)NCCCN(CC)CC
13,208 to 209,CCC(=O)NC1=NN(c2nc3ccccc3s2)C(c2ccc(C)cc2)C1 (stereo unspecified)
14,95 to 96,CC(=O)NCCn1ccc2c1-c1ccccc1CC2
15,59 to 60,CCC(SC(C)=O)C(=O)NC(C)=O (stereo unspecified)
16,216 to 220,N#CCN1C(=O)COc2cc(F)c(N3C(=O)C4=C(CCCC4)C3=O)cc21
17,173 to 175,CC(=O)c1cccc(-c2ccc3nc(-c4ccc(Cl)cc4)cn3c2)c1
18,123 to 124,O=C(NC(=S)Nc1ccccc1-c1ccc(F)cc1)c1ccccc1
19,229,CC1=C(C(=O)OC(C)C)C(c2cccc([N+](=O)[O-])c2)c2c(nc(N3CCOCC3)nc2N2CCOCC2)N1 (stereo unspecified)
20,241,NS(=O)(=O)c1cccc(-c2cccc(-c3nc(-c4ccc(Cl)c(Cl)c4)cc(C(F)(F)F)n3)c2)c1
21,211 to 215,CCCOc1ccc(S(C)(=O)=O)cc1-c1nc2c(CC)nn(C[C@@H]3CCCN3C)c2c(=O)[nH]1
22,253,Cc1cc(-c2ccc(Cl)cc2)nc2c(-c3nc(-c4ccc(S(N)(=O)=O)s4)no3)cnn12
23,91 to 93,OC1CCN(c2ccc(Br)cn2)CC1

row,melting point [°C],SMILES
1,132,O=C(N=c1sc2cc(OC(F)(F)F)ccc2n1CCN1CCN(c2ccccn2)CC1)C(F)(F)F
2,120 to 125,COc1ccccc1N1CCN(CCn2nc(-c3c(-c4ccccc4)nn4ccccc34)ccc2=O)CC1
3,151 to 153,COc1cccc(CNc2n[nH]c(N)c2C#N)c1
4,153 to 155,Clc1ccc2c(c1)C(c1ccccn1)=NCc1ccccc1-2
5,192 to 193,N#Cc1ccc(C(=O)N2CCN(C(=O)C3CCN(c4ccncn4)CC3)CC2)cc1
6,145 to 151,COc1ccc(-c2cnc3cc4cnn(C[C@@H]5COC(C)(C)O5)c4cc3n2)cc1F
7,121 to 122,CCC(CC)n1nc(-c2ccc(O)cc2O)c2cccc(C(F)(F)F)c21
8,140,COc1ccc(CCN2CCC(C3c4ccn(C)c4C=Cn4ncnc43)CC2)cc1 (stereo unspecified)
9,264 to 276,COc1ccc(C(=O)O)c2c1oc1ccc(Cl)cc12
10,180 to 183,Cn1cc(-c2cccc(C(F)(F)F)c2)c(=O)c(-c2cccc(S(C)(=O)=O)c2)c1
11,87 to 90,CS(=O)c1ccc2c(c1)C(=O)C1(CC1)O2 (stereo unspecified)
12,240 to 241,O=C(O)c1ccc2[nH]c3c(c2c1)CCCCCC3
13,109 to 110,CSc1ccc(-c2nn(CC=Cc3ccccc3)c(=O)cc2-c2ccc(Cl)cc2)cc1
14,91.5 to 93,Cc1c(C(=O)O)cccc1-c1cccs1
15,79 to 81,CCOC(=O)C1=C(C)N=C(SCc2ccc(OC)cc2)N(C(=O)OCC)C1c1cccc(OC)c1 (stereo unspecified)
16,241 to 243,C[C@@H](c1ccccc1)n1c(O)nc2c(N)nc3cccnc3c21
17,214 to 215,COc1ccc2c(c1)sc1nc(C=O)cn12
18,292 to 298,CCCCS(=O)(=O)NC(=O)c1ccc2nc(C)n(Cc3ccc(-c4ccccn4)cc3)c2c1
19,173 to 174,CCOC(=O)Nc1ccc2c(c1)c(N)nn2C(=O)OCC
20,200 to 202,CC1(C)Sc2cc(Cl)ccc2C2=NN(C(=O)Nc3ccc(C(F)(F)F)cc3)CC21 (stereo unspecified)
21,204 to 205,O=C(O)c1ccn(-c2ccc(F)cc2)c1
22,173 to 175,O=C(O)C1CCc2c(c3ccccc3n2C(=O)c2cccc(C(F)(F)F)c2)C1 (stereo unspecified)
23,199,CC(Cc1nc(-c2ccccc2)nc2ccccc12)C(=O)NC(CO)c1ccccc1 (stereo unspecified)

row,melting point [°C],SMILES
1,105 to 107,CCCCCCCCCCCCCCCCCCNS(N)(=O)=O
2,203 to 206,Cc1cc2c(cc1C#Cc1ccc(C(=O)O)cc1)C(C)(C)CCC2
3,117 to 118,O=C(NOCC(O)CN1CCCCC1)Nc1cccc(Cl)c1 (stereo unspecified)
4,138 to 140,COCc1cn(-c2cccc(C(F)(F)F)c2)nc(C(=O)OC)c1=O
5,130,IC#CCOc1cccnc1
6,67 to 68,COC(=O)CCC#Cc1cc(F)c(Cl)cc1N
7,178 to 179,O=C(O)CO[C@@H]1COc2nc([N+](=O)[O-])cn2C1
8,166 to 167,CCOC(=O)c1cc(Nc2cccnc2)c(=O)n(CC)n1
9,244 to 246,COc1ccc(-c2csc(Nc3cccc4ccccc34)n2)cc1OC
10,195 to 196,COc1ccccc1N1CCN(Cc2cnc(N)nc2N)CC1
11,176,CCc1nn(C(=O)NS(=O)(=O)c2c(C)cccc2Cl)c(=O)n1C
12,178 to 182,O=C(O)CSCc1cccc(NC(=O)c2cc(-c3ccccc3)oc2C(F)(F)F)c1
13,126 to 127,COC(=O)c1ccc2scc(Cl)c2n1
14,178 to 180,N#Cc1ccc(C(=O)N2CCc3c(n(Cc4cccc(C#N)c4)c4ccccc34)C2)cc1
15,54,C=CCc1cc(C(C)=O)c(O)cc1OCCCCC
16,110 to 111,COc1cc(Nc2nnc(Cc3ccncc3)c3ccccc23)cc(OC)c1OC
17,230,CCOc1cc(N)c([N+](=O)[O-])cc1C(=O)O
18,78 to 81,C=CCSc1cc(C(=O)O)cc(S(N)(=O)=O)c1-c1ccccc1
19,235 to 236,CCCCc1nc2c(N)nc3ccccc3c2n1CC1(O)CCOCC1
20,114 to 116,CCOC(=O)c1cc(=O)c2c(C)c(Cl)c(C)cc2o1
21,> 300,CC(C)(C)c1cc(-n2nc3ccc(S(=O)(=O)c4ccc5nn(-c6cc(C(C)(C)C)cc(C(C)(C)C)c6O)nc5c4)cc3n2)c(O)c(C(C)(C)C)c1
22,176 to 178,CCNC(=O)C1OC(n2cnc3c(NC(=O)Nc4ccc(S(=O)(=O)N5CCCCC5)cc4)ncnc32)C(O)C1O (stereo unspecified)
23,100 to 104,COc1ccc2c(c1)c(C#N)cn2C

row,SMILES,melting point [°C]
1,CCNc1nc(NC(C)C)nc(OC)n1,95 to 96
2,Cc1nc(NC(=O)OCc2ccccc2)c2n1-c1ccc(Cl)cc1C(c1ccccc1F)=NC2,250 to 253
